In PubChem BioAssay (NCI):
“And” between values parts separate entries of the source, which are not always exact repeats. Equal values may be shown once.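 Briefly, cells in 96-well plates were exposed to five compound concentrations for 48 h, and endpoints were estimated by linear interpolation. GI50 = concentration required for 50% inhibition of growth. TGI is the concentration that stops growth completely.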 Where a SMILES comes first, the peptide text is derived from it. [ ]: non-standard residue; d: D form. Phe(4-Cl) = N[CH](Cc1ccc(Cl)cc1)C(=O)O

Experiments:
Assay in all cases: inhibition of tumour cell growth, NCI panel, 48 h
[1] = tested on: IGROV1 ovarian
[2] = tested on: CAKI-1 renal
[3] = tested on: SK-MEL-28 melanoma
[4] = tested on: HOP-62 NSCLC
[5] = tested on: SNB-75 CNS
[6] = tested on: LOX IMVI melanoma
[7] = tested on: NCI-H226 lung
[8] = tested on: PC-3 prostate
[9] = tested on: MDA-MB-231 breast
[10] = tested on: T-47D breast

Row | Structure (SMILES) | TGI [1] [µM] | TGI [2] | TGI [3] [µM] | TGI [4] [µM] | TGI [5] | TGI [6] | TGI [7] [µM] | GI50 [1] | GI50 [2] | GI50 [8] [µM] | TGI [8] [µM] | GI50 [6] | GI50 [9] [µM] | TGI [9] [µM] | GI50 [4] [µM] | GI50 [5] | GI50 [3] | GI50 [7] | GI50 [10] [µM] | TGI [10] [µM]
1 | CC(O)C(NC(=O)C(Cc1ccccc1)NC(=O)C(NC(=O)C(CCCCN)NC(=O)C(Cc1c[nH]c2ccccc12)NC(=O)C(Cc1ccc(O)cc1)NC(=O)C(Cc1ccc(Cl)cc1)NC(=O)C(N)Cc1ccccc1)C(C)O)C(N)=O (configuration not stated) (H-F[Phe(4-Cl)]YWKTFT-NH2; configuration not given here) | 44.8 | 39.5 µM | 41.8 | 38.5 | 37.4 µM |  |  |  |  |  |  |  |  |  |  |  |  |  |  | 
2 | CC(C)(C)OC(=O)Cc1ccc2c(ccn2Cc2ccccc2)c1 | > 100 | > 100 µM | > 100 | > 100 | > 100 µM | > 100 µM | > 100 |  |  |  |  |  |  |  |  |  |  |  |  | 
3 | Cc1ccccc1N(CCC#N)C1=NN(C(=O)CC(=O)Nc2ccccc2)C(c2ccccc2)C1 (configuration not stated) | > 100 |  | > 100 | > 100 | 96.7 µM |  | > 100 |  |  |  |  |  |  |  |  |  |  |  |  | 
4 | O=c1cccccc1NCCCNc1cccccc1=O | > 100 | > 100 µM |  | > 100 |  | > 100 µM | > 100 |  |  |  |  |  |  |  |  |  |  |  |  | 
5 | CCOC(=O)c1cc(/C(=N\O)c2cc(OC)c(OC)c(OC)c2)n2cc(C)cc(C)c12 | > 100 | > 100 µM |  | 5.45 | 4.48 µM | 7.68 µM |  | 3.21 µM | 2.36 µM | 3.33 | > 100 | 2.4 µM | 2.34 | 5.7 | 1.73 | 1.48 µM |  |  |  | 
6 | COc1ccc(C(=O)c2cc(C)c(OC)c(C)c2)c(OC)c1N(C(=O)C(Cl)Cl)C(=O)C(Cl)Cl | > 100 | > 100 µM | > 100 | > 100 | > 100 µM | > 100 µM | 0.468 | 0.101 µM | 0.0415 µM | 0.0436 | > 100 | 0.159 µM | 0.107 | > 100 | 0.0666 | 0.0283 µM | 0.237 µM | 0.0468 µM |  | 
7 | CN(C)CC/C(=N\Nc1c(Cl)cccc1Cl)c1ccccc1 | 92.4 |  | 39.7 | > 100 | 55.6 µM | 31 µM |  |  |  |  |  |  |  |  |  |  |  |  |  | 
8 | Cc1cn2c(/C=C3/C(=O)N(C)c4ccccc43)c(C)nc2s1 | 70.3 |  | 53.4 | > 100 | 23.4 µM | > 100 µM | > 100 | 6.98 µM |  | 16.5 | > 100 | 11.6 µM | 18.1 | > 100 | 30 | 4.69 µM | 14.2 µM | 40.5 µM | 4.49 | > 100
9 | CC(=O)OC[C@]12CC[C@H]3[C@@H](C[C@H]4O[C@]45[C@@H](O)C=CC(=O)[C@]35C)[C@@H]1CC[C@@H]2[C@H](C)[C@H]1CC(C)=C(C)C(=O)O1 | 2.7 | 0.831 µM and 1.08 µM | 1.09 | 3.52 | 0.953 µM and 1.25 µM | 0.692 µM and 1.19 µM | 1.9 | 0.706 µM and 0.924 µM | 0.385 µM and 0.266 µM |  |  | 0.303 µM and 0.374 µM |  |  | 1.51 | 0.261 µM and 0.264 µM | 0.526 µM and 0.381 µM | 0.983 µM and 0.583 µM |  | 
10 | COc1cc(OC(=O)c2c(O)cc(O)c(O)c2C)cc(C)c1C(=O)Oc1cc(C)c(C(=O)O)c(O)c1 | > 100 | > 100 µM | > 100 | > 100 | > 100 µM | > 100 µM | > 100 |  |  |  |  |  |  |  |  |  |  |  |  | 
11 | COC(=O)C1=NC(=S)NC(c2ccccc2)C1c1nc2ccccc2s1 (configuration not stated) | > 100 | > 100 µM | > 100 | > 100 | > 100 µM |  | > 100 |  |  |  |  |  |  |  |  |  |  |  |  | 
12 | CC1(C)C2CC(O)C1(C)CC2=O (configuration not stated) | > 100 |  | 14.8 | > 100 | > 100 µM | > 100 µM | > 100 |  |  |  | > 100 |  |  | > 100 |  |  |  |  |  | > 100
13 | CC(=O)[CH-]C(=O)c1ccccc1.CC(=O)[CH-]C(=O)c1ccccc1.O=C([O-])c1ccc([O-])cc1.O=C([O-])c1ccc([O-])cc1.[Ti+4] | > 100 | > 100 µM | > 100 | > 100 | > 100 µM | > 100 µM | > 100 | 84.3 µM | 35.6 µM |  |  | 28.9 µM |  |  | 35.1 | 29.1 µM | 41.6 µM | 37.3 µM |  | 
14 | COc1ccc2c(c1)C=C([N+](=O)[O-])C(C1OC(C)(C)OC1C1COC(C)(C)O1)O2 (configuration not stated) | 31.7 | 13.9 µM | 3.83 | 37.4 | 28.2 µM | 2.92 µM | 21.6 |  |  |  |  |  |  | 6.6 |  |  |  |  |  | 26.6
15 | O=C(O)CP(=S)(S)c1ccccc1 (configuration not stated) |  | > 100 µM | > 100 | > 100 |  | > 100 µM | > 100 |  |  |  |  |  |  |  |  |  |  |  |  | 
16 | CN(C)P(=O)(/C(N)=N/Nc1ccc([N+](=O)[O-])cc1)N(C)C |  | > 100 µM | > 100 | > 100 | > 100 µM | > 100 µM | > 100 |  |  |  |  |  |  |  |  |  |  |  |  | 
17 | Cc1ccc(Nc2nc3c(s2)C(=O)c2ccccc2C3=O)c(C)c1 | 33.1 | 29 µM | 31.1 | 30.5 | 30.1 µM | 35.4 µM | 17.6 |  |  |  |  |  |  |  |  |  |  |  |  | 
18 | CCOC(=O)NC(=O)c1cn(CCOCCOC(=O)NCCCCCCNC(=O)OCCOCCn2cc(C(=O)NC(=O)OCC)c(=O)[nH]c2=O)c(=O)[nH]c1=O | > 100 |  | > 100 | > 100 | > 100 µM | > 100 µM |  |  |  |  |  |  |  |  |  |  |  |  |  | 
19 | CC1=C2C(=O)O[C@@H](c3ccoc3)[C@]2(C)CCC1 | > 100 | > 100 µM | > 100 | > 100 | > 100 µM | > 100 µM | > 100 |  |  |  |  |  |  |  |  |  |  |  |  | 
20 | Cc1cccc(NC(=O)C(=O)Cc2nc3ccccc3[nH]c2=O)c1C | > 100 | > 100 µM | > 100 | > 100 | > 100 µM | > 100 µM | > 100 |  |  |  |  |  |  |  |  |  |  |  |  | 
21 | Cc1cccc2nc(-c3ccccc3)cc(=O)n12 | > 100 |  | > 100 | > 100 |  |  | > 100 |  |  |  | > 100 |  |  | > 100 |  |  |  |  |  | > 100
22 | Cc1ccc(N(C(=O)CC(=O)NN)C(=O)c2ccccc2Cl)cc1 | > 100 | > 100 µM | > 100 | > 100 | > 100 µM | > 100 µM | > 100 |  |  |  |  |  |  |  |  |  |  |  |  | 
